# Patent US20220153766A1, “CONDENSED TRICYCLIC COMPOUND USED AS KINASE INHIBITOR” (Hangzhou Innogate Pharma Co., Ltd., priority 2019, published 2022)
# Legend:
# [1] = molecular target: EGFR (T790M/L858R/C797S) (Homo sapiens, UniProt P00533, C797S/L858R/T790M); test: EGFR (T790M/L858R/C797S) kinase activity inhibition, Caliper mobility shift assay; assay type: biochemical; settings: kinase 2.5 nM, ATP 40 μM
# Protocol: The basic method is the same as ALK activity test method 2. The test concentration of the compound starts at 2 μM, and is diluted 5 folds into 6 (7 for individual compounds) concentration points. […] Add 30 μL of stop solution containing EDTA to stop the kinase reaction. Use Caliper EZ Reader to read the conversion rate. Inhibition rate %=(Average positive control conversion rate %−Sample conversion rate %/(Average positive control conversion rate %−Average negative control conversion rate %). Among them: negative control wells represent the conversion rate readings without enzyme activity; positive control wells represent the conversion rate readings of wells without compound inhibition. Take the log value of the concentration as the X-axis, and the percentage inhibition rate on the Y-axis. Log (inhibitor) vs. response—Variable slope of analysis software GraphPad Prism 5 was used to fit the curve to obtain the IC50 value of each compound on the enzyme activity. Calculation formula: Y=Bottom+(Top−Bottom)/(1+10^((Log IC50−X)*HillSlope)).
# [2] = Pharmacokinetic study in rats after intragastrical administration; assay type: in vivo; settings: male, rat, plasma, po, SD rats, 3 mg/kg
# EGFR (T790M/L858R/C797S), sequence (P00533 25-1210 T790M/C797S/L858R): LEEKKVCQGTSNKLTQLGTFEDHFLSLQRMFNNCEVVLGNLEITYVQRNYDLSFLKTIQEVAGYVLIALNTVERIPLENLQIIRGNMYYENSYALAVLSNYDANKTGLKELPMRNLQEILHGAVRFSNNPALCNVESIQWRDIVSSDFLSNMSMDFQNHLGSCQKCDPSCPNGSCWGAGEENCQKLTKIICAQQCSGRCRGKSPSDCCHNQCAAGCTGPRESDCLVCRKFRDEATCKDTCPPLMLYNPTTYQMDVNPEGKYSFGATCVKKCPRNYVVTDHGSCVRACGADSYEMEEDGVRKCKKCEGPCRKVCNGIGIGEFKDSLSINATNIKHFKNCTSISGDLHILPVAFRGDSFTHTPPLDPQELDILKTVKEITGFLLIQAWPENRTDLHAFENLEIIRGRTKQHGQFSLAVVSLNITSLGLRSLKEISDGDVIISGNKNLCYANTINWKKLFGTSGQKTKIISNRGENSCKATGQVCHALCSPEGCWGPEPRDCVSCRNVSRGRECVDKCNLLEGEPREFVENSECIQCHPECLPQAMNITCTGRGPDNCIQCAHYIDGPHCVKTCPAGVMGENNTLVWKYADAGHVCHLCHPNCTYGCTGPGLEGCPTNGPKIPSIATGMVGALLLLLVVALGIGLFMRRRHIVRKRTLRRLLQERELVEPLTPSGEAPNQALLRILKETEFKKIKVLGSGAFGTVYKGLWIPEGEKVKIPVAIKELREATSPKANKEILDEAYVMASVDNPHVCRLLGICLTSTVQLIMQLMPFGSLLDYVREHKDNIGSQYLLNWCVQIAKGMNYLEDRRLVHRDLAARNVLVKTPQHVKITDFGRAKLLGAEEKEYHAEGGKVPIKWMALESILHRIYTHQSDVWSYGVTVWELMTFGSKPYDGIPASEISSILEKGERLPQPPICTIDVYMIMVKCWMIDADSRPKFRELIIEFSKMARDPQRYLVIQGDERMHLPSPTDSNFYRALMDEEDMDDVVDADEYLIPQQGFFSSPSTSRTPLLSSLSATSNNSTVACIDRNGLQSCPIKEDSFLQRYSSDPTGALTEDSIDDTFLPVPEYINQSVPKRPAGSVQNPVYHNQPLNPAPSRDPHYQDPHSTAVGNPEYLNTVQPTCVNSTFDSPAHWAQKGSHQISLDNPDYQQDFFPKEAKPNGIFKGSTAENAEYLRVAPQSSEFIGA
compound,measurement,setting,value
Cc1cc(Nc2ncc(Cl)c(Nc3ccccc3P(C)(C)=O)n2)cc2c1N1CCN(C3CCN(C)CC3)C[C@@H]1CO2 [Compound 27R],IC50,[1],< 3 nM
same,Cmax,[2],196 ng/mL
same,Tmax,[2],5.33 h
same,half-life,[2],310 min
same,AUC(0-t),[2]; read-out: AUC0-24 h,2750 ng·h/mL
